Assay results from patent publication US20260207720A1, “COMPOSITIONS AND METHODS FOR TREATING FUNGAL INFECTIONS” (MUCPharm Pty Ltd, priority 2022, published 2026).
In brackets after ≈: the same amount, converted by molar mass.

Experiments:
[1] = test system: Mucormycete group (Rhizopus microspores, Fusarium solani cx, Rhizopus arrhizus and Candida krusei QC); test: Susceptibility assay of bromelain and acetylcysteine alone or together (Example 1); type: cell-based; settings: in isolation, R. microsporus, read-out: MIC required to inhibit Mucormycete growth
Protocol: Unless otherwise described, fungal cultures were grown on potato dextrose agar plates at 35° C. until mature (appearance of conidia) and used to prepare suspensions in sterile water. Suspensions were diluted in RPMI 1:60. These suspensions were then added in equal volume to solutions containing the candidate species described above and incubated at 35° C. for 24 hr. Plates were then analysed for fungal growth inhibition and MIC values determined. […] Initial tests were conducted on one strain of Rhizopus microsporus, one strain of Rhizopus arrhizus and one strain of Candida krusei QC, all sourced clinically.

[2] = test system: Aspergillus fumigatus (ATCC strain 13697); test: Broth dilution susceptibility test, MIC and percent growth (Example 7); type: cell-based
Protocol: A. Preparation of inoculum: • 1. Candida glabrata was grown on Sabouraud dextrose agar (SDA) at 37° C. for 24-48 hrs. • 2. Following this, 5 colonies of 1 mm diameter were picked and suspended in 5 mL sterile saline (0.9% saline) and vortexed for 15 seconds. • 3. Working suspension is prepared as a 1:100 dilution from stock suspension with RPMI 1640 culture medium. • 4. The cell density is adjusted with a spectrophotometer to the transmittance produced by a 0.5 McFarland standard (0.08 to 0.1) OD at 625 nm wavelength.
• 1. For Bromelain, a stock concentration of 1 mg/ml Bromelain solution was prepared in RPMI media and diluted to test concentrations of 62.4, 31.2, 15.6 and 7.8 μg/ml in RPMI 1640 media. • 2. Acetylcysteine stock concentration is 200 mg/ml, diluted to 40, 20, 10, and 5 mg/ml concentrations in RPMI 1640 medium. • 3. These concentrations are prepared at 2× of the required concentrations in the final assay plate.
Antifungal stock concentrations are as follows— • 1. Amphotericin B, Stock concentration: 250 μg/ml in water. • 2. Posaconazole, Original concentration: 300 mg in 16.7 ml, Working stock concentration: 1 mg/ml in DMSO. • 3. Fluconazole, Original concentration: 100 mg in 50 ml, Working stock concentration: 1 mg/ml in DMSO. • 4. The final concentration was prepared in RPMI 1640 media and concentrations range was 0.01-0.5 μg/mL for amphotericin B, 0.01-2 μg/mL for posaconazole and 0.01-64 μg/mL for fluconazole. • 5. These concentrations were prepared at 2× of the required concentrations in the final assay plate.
• 1. Wells of the 96-well plates were inoculated with appropriate concentrations and volumes of drugs. • 2. Sterility control and growth controls are included in each plate. • 3. Each 96-well plate (except the control wells) contains 100 μL of double strength (twice the final antifungal drug) concentrations. • 4. 100 μL of the fungal suspension is added to 96-well plates (except the sterility control wells). • 5. The growth control wells contained 100 μL of sterile drug-free medium and 100 μL of inoculum suspension, while the sterility control wells contained 200 μl of sterile drug-free medium. • 6. Plates are then incubated at 37° C. and read at 625,430, and 530 nm wavelengths. • 7. Data from 24 hours and absorbance at 625 nm were used for analysis.
These experiments were conducted to determine the efficacy of BromAc alone and in combination with existing antifungal drugs against Aspergillus fumigatus (ATCC strain 13697).
The method used in these experiments is essentially the same as that described above in Example 5. In these experiments, however, echinocandins such as […] Caspofungin are used in place of the azole antifungals described in earlier examples.

## CC(=O)N[C@@H](CS)C(=O)O [Acetylcysteine, N-acetylcysteine]
[1]
  MIC: 10 µg/mL (≈ 61.3 µM)

## CC[C@H](C)C[C@H](C)CCCCCCCCC(=O)N[C@H]1C[C@@H](O)[C@@H](NCCN)NC(=O)[C@@H]2[C@@H](O)CCN2C(=O)[C@H]([C@H](O)CCN)NC(=O)[C@H]([C@H](O)[C@@H](O)c2ccc(O)cc2)NC(=O)[C@@H]2C[C@@H](O)CN2C(=O)[C@H]([C@@H](C)O)NC1=O [Caspofungin]
[2]; FIGS. 13a, 14a
  MIC: > 1 µg/mL
[2]; Voriconazole 1 μg/ml and 0.5 μg/ml, Caspofungin 0.25 μg/ml and 0.125 μg/ml
  effect at lower concentrations (in words): almost no inhibitory effect
